Test results reported in article PMC11695783 (Frontiers in Pharmacology, 2024).
Like-named read-outs stand apart in the source and are kept apart here.

Columns and labels:
ICR strain mice [1] = experiment: Acute toxicity study, oral gavage; type: in vivo
Procedure: Twenty four male and female SPF-grade ICR strain mice were randomly divided into 6 groups of 4 mice each. Compound 16C was dissolved in DMSO at doses of 0, 8, 40, 200, 1,000, and 5,000 mg/kg and was administered to the mice by gavage.
(§1) Ten mice were gavaged with 5,000 mg/kg of compound 16C and another 10 mice were given DMSO orally as a control. The mice were fed and watered ad libitum. The animals’ appearance, diet, behavior, and death were observed and recorded for 14 consecutive days after administration. The LD50 was calculated as previously described ([Xiao et al., 2019]), and the test was repeated twice. To assess the acute toxicity of intramuscular administration in mice, we repeated the above experiment and replaced gavage with intramuscular injection.

RAW 264.7 = tested on: RAW 264.7; parameters: method as in PMID 26150841; conditions: RAW 264.7, 8 μg/mL, compared with the control drugs; ref [30]; cited from earlier work
ICR strain mice [2] = experiment: Acute toxicity study, intramuscular injection; type: in vivo
Procedure: as §1

mice [3] = tested on: mice; parameters: method as in EMA, 1999; conditions: administered intravenously, ref EMA, 1999; cited from earlier work
mice [4] = conditions: acute oral toxicity, ref EMA, 1999, cited from earlier work

Compound | deaths (pre-test) (ICR strain mice [1]; gavage 8, 40, 200, 1,000, and 5,000 mg/kg in DMSO, observed 14 d) | mouse deaths (ICR strain mice [1]; oral gavage, single dose of 5,000 mg/kg, after 2 weeks) | LD50 (ICR strain mice [1]; oral gavage, single dose, mice, observed 14 d) | symptoms observed (ICR strain mice [1]; single dose of 5,000 mg/kg, oral gavage or intramuscular injection, mice rapidly recovered) | influence on cell viability (RAW 264.7) | mouse deaths (ICR strain mice [2]; single dose of 5,000 mg/kg, after 2 weeks) | LD50 (ICR strain mice [2]; single dose, mice, observed 14 d) | LD50 (mice [3]) | LD50 (mice [4]; female mice) | LD50 (mice [4]; male mice)
C=CC1(C)CC(OC(=O)CSc2ccc(NC(=O)Cc3ccc([N+](=O)[O-])cc3)cc2)C2(C)C(C)CCC3(CCC(=O)C32)C(C)C1O (stereo not shown) [compound 16C, 22–((4-((4-nitrophenyl)acetamido)phenyl)thio)deoxypleuromutilin] | no deaths were observed | did not result in any mouse deaths | > 5,000 mg/kg | anorexic symptoms | only slight influences on the viability | did not result in any mouse deaths | > 5,000 mg/kg | – | – | –
C=C[C@]1(C)C[C@@H](OC(=O)CSCCN(CC)CC)[C@]2(C)[C@H](C)CC[C@]3(CCC(=O)[C@H]32)[C@@H](C)[C@@H]1O [tiamulin, Tiamulin, reference compound] | – | – | – | – | – | – | – | 50 mg/kg | 650 mg/kg | 770 mg/kg
